In one data set the test system is MRSA. Briefly: MIC, 96-well CAMHB, 10^5 to 10^2 CFU/mL in 24 hours. The data set is classed as cell-based, Staphylococcus aureus. The conditions noted are these: for MIC: Staphylococcus aureus, MRSA, read-out: MIC (MRSA). The procedure: (§1) To determine the MIC of polyamine compounds, the protocol described herein was used.
In brief, a 0.5 McFarland of each bacterial isolate was made. A 0.5 McFarland is a measure of turbidity in a liquid sample that contains approximately 1×10^∧8 CFU/mL. The 0.5 McFarland standard was diluted in cation adjusted Mueller Hinton Broth (CAMHB), and 50 μL of broth were added to a well of a 96-well plate. In addition, 50 μL of CAMHB that contained a desired concentration of antimicrobial were also added to the well for a final volume of 100 μL and a final concentration of approximately 5×10^4 CFU/well (which equated to approximately 5×10^5 CFU/mL). Each well contained a desired amount of polyamine compound in order to experimentally determine the MIC. Each 96-well plate was incubated at 37° C. for 24 hours. The contents of each well were plated on tryptic soy agar (TSA). TSA plates were incubated for 37° C. for 24 hours after which the number of CFU were counted and used to calculate the CFU/mL that remained after exposure to varying concentrations of compound. This procedure was repeated n=8 times for each concentration of antimicrobial. […]

In the next data set the test system is L-929 cells (ATCC CCL-1). Briefly: Minimal Essential Media (MEM) Elution cytotoxicity test. The data set is classed as cell-based. The conditions noted are these: Table 11A. The procedure:
Summary: The Minimal Essential Media (MEM) Elution test was designed to determine the cytotoxicity of extractable substances. The test article was added to cell monolayers and incubated. The cell monolayers were examined and scored based on the degree of cellular destruction.
Acceptance Criteria: The United States Pharmacopeia & National Formulary (USP <87>) states that the test article meets the requirements, or receives a passing score (Pass) if the reactivity grade is not greater than grade 2 or a mild reactivity.
Acceptance criteria were based upon the negative and media controls receiving “0” reactivity grades and positive controls receiving a 3-4 reactivity grades (moderate to severe).
The cell monolayers were examined microscopically. The wells were scored as to the degree of discernable morphological cytotoxicity on a relative scale of 0 to 4:
The results from the three wells were averaged to give a final cytotoxicity score.
[…] This initial concentration was then diluted 1: 2, 1:4, 1:8, and 1:16. Multiple well cell culture plates were seeded with a verified quantity of industry standard L-929 cells (ATCC CCL-1) and incubated until approximately 80% confluent. The test articles and control extracts were added to the cell monolayers in triplicate. The cells were incubated at 37±1° C. with 5±1% CO2 for 48±3 hours.

In a further data set the test system is P. aeruginosa. The data set can be described thus: MIC, 96-well CAMHB, 10^5 to 10^2 CFU/mL in 24 hours. It counts as cell-based, Pseudomonas aeruginosa. The conditions noted are these: for MIC: Pseudomonas aeruginosa. Here is the method:
as §1
In brief, a 0.5 McFarland of each bacterial isolate was made. A 0.5 McFarland is a measure of turbidity in a liquid sample that contains approximately 1×10^∧8 CFU/mL. The 0.5 McFarland standard was diluted in cation adjusted Mueller Hinton Broth (CAMHB), and 50 μL of broth were added to a well of a 96-well plate. In addition, 50 μL of CAMHB that contained a desired concentration of antimicrobial were also added to the well for a final volume of 100 μL and a final concentration of approximately 5×10^4 CFU/well (which equated to approximately 5×10^5 CFU/mL). Each well contained a desired amount of polyamine compound in order to experimentally determine the MIC. Each 96-well plate was incubated at 37° C. for 24 hours. The contents of each well were plated on tryptic soy agar (TSA). TSA plates were incubated for 37° C. for 24 hours after which the number of CFU were counted and used to calculate the CFU/mL that remained after exposure to varying concentrations of compound. This procedure was repeated n=8 times for each concentration of antimicrobial.

Where [1] appears, read: Table 5, read-out: MIC (P. aeruginosa).
[2] abbreviates: read-out: MIC (P. aeruginosa), Table 5.

In brackets after ≈: the same amount, converted by molar mass. Where a name gives a salt, the structure may show the parent alone. Read-outs that look alike come from different tables or passages of the source. A value given as a limit tells only on which side of the number the result lay.

Take `c1ccc(-c2cc(CNCCCNCCCNCC3CCCCC3)cc(CNCCCNCCCNCC3CCCCC3)c2)cc1` [CZ-96, N^1,N^1′-([1,1′-biphenyl]-3,5-diylbis(methylene))bis(N^3-(3-((cyclohexylmethyl)amino)propyl)propane-1,3-diamine)]: the MIC in the data set with MRSA (Table 5) and with P. aeruginosa (setting [1]) was below 50 µM in each case. The “Results Pass/Fail” value in the data set with L-929 cells (ATCC CCL-1) (25 μg/mL), in the data set with L-929 cells (ATCC CCL-1) (dilution 1:2 of 25 μg/mL), in the data set on L-929 cells (ATCC CCL-1) (dilution 1:4 of 25 μg/mL), in the data set on L-929 cells (ATCC CCL-1) (dilution 1:8 of 25 μg/mL) and in the data set on L-929 cells (ATCC CCL-1) (dilution 1:16 of 25 μg/mL) was “Pass (receives a passing score (Pass) if the reactivity grade is not greater than grade 2 or a mild reactivity)” in each case.
Take `CC(C)CNCCCNCCCNCc1cc(Br)cc(CNCCCNCCCNCC(C)C)c1` [CZ-109, N^1,N^1′-((5-bromo-1,3-phenylene)bis(methylene))bis(N^3-(3-(isobutylamino)propyl)propane-1,3-diamine)]: the MIC with MRSA (Table 5) and in the data set on P. aeruginosa (setting [1]) was below 50 µM in each case.
`CCCCCCNCCCNCCCCNCc1cc(CNCCCCNCCCNCCCCCC)cc(-c2ccccc2)c1` [CZ-118, N^1,N^1′-([1,1′-biphenyl]-3,5-diylbis(methylene))bis(N^4-(3-(hexylamino)propyl)butane-1,4-diamine)]: the minimum inhibitory concentration (MIC) with MRSA (Table 5) and in the data set on P. aeruginosa (setting [1]) was below 50 µM each time.
Turning to `NCCCNCCCNCc1cc(CNCCCNCCCN)cc(OC2CCCCC2)c1` [CZ-105], the minimal inhibitory concentration (MIC) in the data set on MRSA (Table 5) is below 50 µM; in the data set with P. aeruginosa (setting [1]), 50 to 100 µM (≈ 23.1 to 46.3 µg/mL).
For the molecule `NCCCNCc1cc(CNCCCN)cc(-c2ccccc2)c1` [CZ-77, N^1,N^1′-([1,1′-biphenyl]-3,5-diylbis(methylene))bis(propane-1,3-diamine), hydrochloride salt], the minimum inhibitory concentration (MIC) in the data set with MRSA and with P. aeruginosa (setting [2]) was below 50 µM in each case.
For “tri-tert-butyl-(((((benzene-1,3,5-triyltris(methylene))tris(azanediyl))tris-(propane-3,1-diyl))tris(azanediyl))tris(propane-3,1-diyl))tricarbamate, hydrochloride salt [CZ-54]”, in the data set on MRSA (Table 5), the “MIC (MRSA)” value is on record as “+++ (+++ = 50 μM > MIC. MIC results of “>n μM” or “<n μM” will also be designated as +++ if n <50.)”. Further, the “MIC (P. aeruginosa)” value in the data set on P. aeruginosa (Table 5) is “+++ (+++ = 50 μM > MIC. MIC results of “>n μM” or “<n μM” will also be designated as +++ if n <50.)”.
In the case of `NCCCNCCCNCc1cc(CNCCCNCCCN)cc(OCc2ccccc2)c1` [CZ-95, N^1,N^1′-((5-(Benzyloxy)-1,3-phenylene)bis(methylene))bis(N^3-(3-aminopropyl)propane-1,3-diamine), hydrochloride salt], the MIC in the data set on MRSA and in the data set on P. aeruginosa (setting [2]) was below 50 µM in each case.
`CC(C)CNCCCCCCCCCCCCNCc1cc(CNCCCCCCCCCCCCNCC(C)C)cc(-c2ccccc2)c1` [CZ-116, N^1,N^1′-([1,1′-biphenyl]-3,5-diylbis(methylene))bis(N^12-isobutyldodecane-1,12-diamine)]: the MIC in the data set on MRSA (Table 5) and in the data set with P. aeruginosa (setting [1]) was below 50 µM in each case.
As for `CCCCCCNCCCNCCCNCc1cc(CNCCCNCCCNCCCCCC)cc(-c2ccccc2)c1` [CZ-114, N^1,N^1′-([1,1′-biphenyl]-3,5-diylbis(methylene))bis(N^3-(3-(hexylamino)propyl)propane-1,3-diamine)], the MIC in the data set with MRSA (Table 5) and in the data set with P. aeruginosa (setting [1]) was below 50 µM each time.
Consider `CCC(CC)COc1cc(CNCCCNCCCNCC(C)C)cc(CNCCCNCCCNCC(C)C)c1` [CZ-91, N^1,N^1′-((5-(2-ethylbutoxy)-1,3-phenylene)bis(methylene))bis(N^3-(3-(isobutylammonio)propyl)propane-1,3-diaminium) chloride], for which the minimum inhibitory concentration (MIC) in the data set with MRSA and in the data set with P. aeruginosa (setting [2]) was below 50 µM each time.
For `CC(C)CNCCCNCCCNCc1cccc(CNCCCNCCCNCC(C)C)c1` [CZ-108, N^1,N^1′-(1,3-phenylenebis(methylene))bis(N^3-(3-(isobutylamino)propyl)propane-1,3-diamine)], the minimal inhibitory concentration (MIC) with MRSA (Table 5) and in the data set on P. aeruginosa (setting [1]) was below 50 µM in each case.
As for `CC(C)CNCCCOc1cc(CNCCCNCCCN)cc(CNCCCNCCCN)c1` [CZ-107, N^1,N^1′-((5-(3-(isoButylammonio)propoxy)-1,3-phenylene)bis(methylene))-bis(N^3-(3-ammoniopropyl)propane-1,3-diaminium) chloride], the MIC in the data set with MRSA is below 50 µM; with P. aeruginosa (setting [2]) it was 50 to 100 µM.
For `NCCCNCCCNCc1cc(O)cc(CNCCCNCCCN)c1` [CZ-87, 3,5-bis(((3-((3-aminopropyl)amino)propyl)amino)methyl)phenol], the MIC with MRSA (Table 5) and with P. aeruginosa (setting [1]) was below 50 µM throughout.
`CCCCOc1cc(CNCCCNCCCN)cc(CNCCCNCCCN)c1` [CZ-76, N^1,N^1′-((5-butoxy-1,3-phenylene)bis(methylene))bis(N3-(3-aminopropyl)propane-1,3-diamine), hydrochloride salt]: the values for the MIC in the data set with MRSA and with P. aeruginosa (setting [2]) were below 50 µM and 50 to 100 µM, respectively.
Take `CC(C)CNCCCNCCCNCc1cc(CNCCCNCCCNCC(C)C)cc(OC2CCCCC2)c1` [CZ-104, N^1,N^1′-((5-(cyclohexyloxy)-1,3-phenylene)bis(methylene))bis(N^3-(3-(isobutylamino)propyl)propane-1,3-diamine)]: the MIC in the data set on MRSA (Table 5) is below 50 µM. Also, the “MIC (P. aeruginosa)” value in the data set with P. aeruginosa (Table 5) is recorded as “++ to +++”.
Regarding `CC(C)CNCCCNCCCCNCc1cc(CNCCCCNCCCNCC(C)C)cc(-c2ccccc2)c1` [CZ-111, N^1,N^1′-([1,1′-biphenyl]-3,5-diylbis(methylene))bis(N^4-(3-(isobutylamino)propyl)butane-1,4-diamine)], the MIC with MRSA (Table 5) and with P. aeruginosa (setting [1]) was below 50 µM each time.
As to `NCCCNCCCNCc1cc(CNCCCNCCCN)cc(-c2ccc(C(=O)N3CCCCC3)cc2)c1` [CZ-88, (3′,5′-Bis(((3-((3-aminopropyl)amino)propyl)amino)methyl)-[1,1′-biphenyl]-4-yl) (piperidin-1-yl)methanone], the MIC with MRSA (Table 5) and in the data set with P. aeruginosa (setting [1]) was below 50 µM each time.
Consider `c1ccc(CNCCCNCCCNCc2cc(CNCCCNCCCNCc3ccccc3)cc(-c3ccccc3)c2)cc1` [CZ-94, N^1,N^1′-([1,1′-biphenyl]-3,5-diylbis(methylene))bis(N^3-(3-(benzylamino)propyl)propane-1,3-diamine)], for which the MIC in the data set on MRSA (Table 5) and in the data set on P. aeruginosa (setting [1]) was below 50 µM throughout.
Take `c1cc(CNCCCNCCCNCC2CCCCC2)cc(CNCCCNCCCNCC2CCCCC2)c1` [CZ-97, N^1,N^1′-(1,3-phenylenebis(methylene))bis(N^3-(3-((cyclohexylmethyl)-amino)propyl)propane-1,3-diamine)]: the MIC in the data set with MRSA (Table 5) and with P. aeruginosa (setting [1]) was below 50 µM in each case.
Consider `CCCCCCNCCCNCCCCNCc1cccc(CNCCCCNCCCNCCCCCC)c1` [CZ-119, N^1,N^1′-(1,3-phenylenebis(methylene))bis(N^4-(3-(hexylamino)propyl)butane-1,4-diamine)], for which the minimum inhibitory concentration (MIC) in the data set with MRSA (Table 5) and in the data set on P. aeruginosa (setting [1]) was below 50 µM in each case.
